The values that follow come from patent US10385024B2, “Compounds and methods for inhibiting NHE-mediated antiport in the treatment of disorders associated with fluid retention or salt overload and gastrointestinal tract disorders” (Ardelyx, Inc., priority 2012, dated 2019).

Molecules are shown by their SMILES.

For assay [1], the system named is absorption of sodium from the intestinal lumen. Description: Inhibition of intestinal sodium absorption (urinary sodium and fecal form). The format is in vivo, Sprague-Dawley rats. The note with it: rat, 3 mg/kg oral gavage, urine 16 h post-dose; asterisks = significance vs vehicle (*P<0.05, **P<0.01, ***P<0.001); read-out: uNa (% of vehicle). A digest of the protocol: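 Sprague-Dawley rats (8 weeks, n=6) dosed by oral gavage with compound or water vehicle (10 mL/kg) in late afternoon, then housed in metabolic cages. Over 16 h, urinary sodium measured by ion chromatography and expressed as % of vehicle mean; fecal form scored 1–5, averaged from two observations.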

Assay [2] concerns the target T1, human NHE-3 (Homo sapiens, UniProt P48764).
T1 construct: expressed in transfected cells; host or cells: Opossum kidney (OK) cells (ATCC), transfected by electroporation
T1 sequence (P48764 26-834): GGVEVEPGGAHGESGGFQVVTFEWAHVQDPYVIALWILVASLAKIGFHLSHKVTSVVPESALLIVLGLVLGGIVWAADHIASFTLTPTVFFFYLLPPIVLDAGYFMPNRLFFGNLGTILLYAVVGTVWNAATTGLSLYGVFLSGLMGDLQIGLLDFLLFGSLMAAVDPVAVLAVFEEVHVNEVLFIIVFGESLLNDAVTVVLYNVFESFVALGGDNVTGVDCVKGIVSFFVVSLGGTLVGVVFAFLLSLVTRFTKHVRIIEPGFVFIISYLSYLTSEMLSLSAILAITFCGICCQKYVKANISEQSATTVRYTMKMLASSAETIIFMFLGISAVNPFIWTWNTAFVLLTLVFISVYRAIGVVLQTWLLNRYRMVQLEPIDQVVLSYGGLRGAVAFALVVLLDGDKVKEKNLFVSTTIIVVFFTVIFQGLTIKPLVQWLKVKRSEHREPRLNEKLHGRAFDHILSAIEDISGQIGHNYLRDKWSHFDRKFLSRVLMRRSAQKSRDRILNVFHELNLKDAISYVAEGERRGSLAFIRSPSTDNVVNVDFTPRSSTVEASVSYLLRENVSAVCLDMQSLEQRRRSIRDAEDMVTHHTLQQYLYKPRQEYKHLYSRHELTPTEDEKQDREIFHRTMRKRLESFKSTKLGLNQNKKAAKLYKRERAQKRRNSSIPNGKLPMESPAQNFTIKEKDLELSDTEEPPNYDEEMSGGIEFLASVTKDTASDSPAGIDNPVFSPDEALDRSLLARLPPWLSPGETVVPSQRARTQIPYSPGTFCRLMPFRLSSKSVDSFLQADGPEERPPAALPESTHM
The experiment in a line: Cell-based assay of NHE-3 activity (human NHE3 inhibition assay). As to conditions: OK cells with human NHE-3 gene, BCECF pH dye, 0-30 μM test compound; read-out: Human NHE3 pIC50 (converted). The procedure, abridged: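 Opossum kidney cells electroporated with rat or human NHE-3, loaded with 5 μM BCECF-AM in NH4Cl-HEPES pH 7.4 for 30 min at RT, then acidified 10 min in Na+-free choline HEPES. Na+-dependent pH recovery rates from BCECF fluorescence, averaged over ≥2 replicates, gave pIC50.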

In the case of `CN1Cc2c(Cl)cc(Cl)cc2[C@H](c2cccc(S(=O)(=O)NCCOCCOCCNC(=O)CCC(CCC(=O)NCCOCCOCCNS(=O)(=O)c3cccc([C@@H]4CN(C)Cc5c(Cl)cc(Cl)cc54)c3)(CCC(=O)NCCOCCOCCNS(=O)(=O)c3cccc([C@@H]4CN(C)Cc5c(Cl)cc(Cl)cc54)c3)NC(=O)NC(CO)(CO)CO)c2)C1` [Example 11, N^1,N^7-bis(2-(2-(2-(3-((S)-6,8-dichloro-2-methyl-1,2,3,4-tetrahydroisoquinolin-4-yl)phenylsulfonamido)ethoxy)ethoxy)ethyl)-4-(3-(2-(2-(2-(3-((S)-6,8-dichloro-2-methyl-1,2,3,4-tetrahydroisoquinolin-4-yl)phenylsulfonamido)ethoxy)ethoxy)ethylamino)-3-oxopropyl)-4-(3-(1,3-dihydroxy-2-(hydroxymethyl)propan-2-yl)ureido)heptanediamide], the response vs control in vivo at 3 mg/kg in assay [1] fell in the range of 35 to 75%. Also, the IC50 in assay [2] is 100 to 10000 nM.

For the molecule `CN1Cc2c(Cl)cc(Cl)cc2[C@H](c2cccc(S(=O)(=O)NCCOCCOCCNC(=O)CCC(CCC(=O)NCCOCCOCCNS(=O)(=O)c3cccc([C@@H]4CN(C)Cc5c(Cl)cc(Cl)cc54)c3)(CCC(=O)NCCOCCOCCNS(=O)(=O)c3cccc([C@@H]4CN(C)Cc5c(Cl)cc(Cl)cc54)c3)NC(=O)NCCN3CCOCC3)c2)C1` [Example 17, N^1,N^7-bis(2-(2-(2-(3-((S)-6,8-dichloro-2-methyl-1,2,3,4-tetrahydroisoquinolin-4-yl)phenylsulfonamido)ethoxy)ethoxy)ethyl)-4-(3-(2-(2-(2-(3-((S)-6,8-dichloro-2-methyl-1,2,3,4-tetrahydroisoquinolin-4-yl)phenylsulfonamido)ethoxy)ethoxy)ethylamino)-3-oxopropyl)-4-(3-(2-morpholinoethyl)ureido)heptanediamide], the response vs control in vivo at 3 mg/kg in assay [1] is less than 35%. In assay [2], the IC50 is less than 100 nM.
